From US20230064983A1 (priority 2020, published 2023)
Values joined by “and” are separate entries in the source; they are usually repeats but may differ in a detail not shown here. Identical values can stand only once.

Columns and labels:
[1] = target: T1, EGFR with insertion SVD between D770 and N771 (mutEGFR D770_N771insSVD) (Homo sapiens, UniProt P00533, DUP768-770); assay: Exon20-Mutant-EGFR(D770_N771insSVD) kinase assay (TR-FRET); type: biochemical; details: 2 mM ATP, Table 2
T1 construct: amino acids R669 to A1210; made in house; host or cells: Sf9 insect cells (baculovirus)

[2] = target: T2, Bub1 (Homo sapiens, UniProt O43683); assay: Bub1 high ATP kinase assay (TR-FRET); type: biochemical; details: Bub1 high ATP (2 mM) IC50, TR-FRET, 2 mM ATP; Table 3
T2 construct: catalytic domain of human Bub1 (amino acids 704-1085); His6 (N); made in house; host or cells: insect cells (Hi5)
In short: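 Read-out was the 665/620 nm TR-FRET ratio after 1 h at 22 °C with EDTA stop mix (streptavidin-XL665, anti-phosphoserine antibody, Eu anti-mouse IgG). Beforehand, a biotinylated peptide was phosphorylated for 60 min at 22 °C under high ATP by His6-tagged human Bub1 residues 704-1085 expressed in Hi5 cells, about 200 ng/ml.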

[3] = target: Ba/F3-EGFR-D770_N771insSVD cells (Homo sapiens, UniProt P00533, DUP768-770, cells depend on it); assay: Ba/F3 cell survival assay, EGFR D770_N771insSVD; type: cell-based; details: Cell Titer-Glo, 48 h, without IL-3; Table 4; read-out: BA/F3 (insSVD) IC50
[4] = target: Ba/F3-EGFR-WT cells (Homo sapiens, UniProt P00533); assay: Ba/F3 cell survival assay, wild type EGFR; type: cell-based; details: Cell Titer-Glo, 48 h, with 10 ng/mL EGF; Table 4; read-out: BA/F3 (wild type) IC50
[5] = target: Ba/F3-EGFR-N771_P772insH cells (Homo sapiens, UniProt P00533, INS771H, cells depend on it); assay: Ba/F3 cell survival assay, EGFR N771_P772insH; type: cell-based; details: EGFR Exon20 insertion mutations; Table 6; read-out: BA/F3 (EGFR N771_P772insH) IC50
[6] = target: Ba/F3-EGFR-H773_V774insNPH cells (Homo sapiens, UniProt P00533, DUP771-773, cells depend on it); assay: Ba/F3 cell survival assay, EGFR H773_V774insNPH; type: cell-based; details: EGFR Exon20 insertion mutations; Table 6; read-out: BA/F3 (EGFR H773_774insNPH) IC50
[7] = target: Ba/F3-EGFR-E746_A750del cells (Homo sapiens, UniProt P00533, DEL746-750, cells depend on it); assay: Ba/F3 cell survival assay, EGFR E746_A750del; type: cell-based; details: classical activating and rare EGFR mutations; Table 7; read-out: BA/F3 (EGFR E746_A750del) IC50
[8] = target: Ba/F3-EGFR-D770_N771insSVD C797S cells (Homo sapiens, UniProt P00533, DUP768-770/C797S, cells depend on it); assay: Ba/F3 cell survival assay, EGFR D770_N771insSVD C797S; type: cell-based; details: aquired resistance space; Table 8; read-out: BA/F3 (EGFR 0770_N771 insSVD C797S) IC50
[9] = target: Ba/F3-EGFR-E746_A750del C797S cells (Homo sapiens, UniProt P00533, DEL746-750/C797S, cells depend on it); assay: Ba/F3 cell survival assay, EGFR E746_A750del C797S; type: cell-based; details: aquired resistance space; Table 8; read-out: BA/F3 (EGFR E746_A750del C797S) IC50
[10] = target: Ba/F3-ERBB2-A775_G776insYVMA cells (Homo sapiens, UniProt P04626, DUP772-775, cells depend on it); assay: Ba/F3 cell survival assay, ERBB2 A775_G776insYVMA; type: cell-based; details: Table 9; read-out: BA/F3 (ERBB2 A775_G776 insYVMA) IC50
[11] = system: HCC-827 cells; assay: HCC-827 cell proliferation assay (EGFRex19del); type: cell-based; details: Homo sapiens, HCC827, 72 h, read-out: HCC-827 IC50
Description: Cellular Data Description (HCC-827 cells, EGFRex19del)
HCC-827 cells were purchased from ATCC. […] cells per well were seeded in growth medium (RPM11640, 10% FCS) in a 384-well plate (CORNING #3571). Seed reference plate for time zero determination on the same day. All plates were incubated overnight at 37° C. After 24 hours, test compound were added in 7-step dilution using HP Compound printer and incubated at 37° C. for 72 h. After 3 days, 30 μL/well CTG solution (Promega Cell Titer Glo solution; catalog #G755B and G756B) were added to each well, incubated for 30 minutes and the plate were read on PheraStar. Proliferation is calculated after subtracting time zero luminescence values from day 4 values and comparing to untreated wells.
The IC50 values were determined using the four parameter fit.

Sequence of Ba/F3-EGFR-E746_A750del cells (P00533 with tags, fused parts or gaps DEL746-750): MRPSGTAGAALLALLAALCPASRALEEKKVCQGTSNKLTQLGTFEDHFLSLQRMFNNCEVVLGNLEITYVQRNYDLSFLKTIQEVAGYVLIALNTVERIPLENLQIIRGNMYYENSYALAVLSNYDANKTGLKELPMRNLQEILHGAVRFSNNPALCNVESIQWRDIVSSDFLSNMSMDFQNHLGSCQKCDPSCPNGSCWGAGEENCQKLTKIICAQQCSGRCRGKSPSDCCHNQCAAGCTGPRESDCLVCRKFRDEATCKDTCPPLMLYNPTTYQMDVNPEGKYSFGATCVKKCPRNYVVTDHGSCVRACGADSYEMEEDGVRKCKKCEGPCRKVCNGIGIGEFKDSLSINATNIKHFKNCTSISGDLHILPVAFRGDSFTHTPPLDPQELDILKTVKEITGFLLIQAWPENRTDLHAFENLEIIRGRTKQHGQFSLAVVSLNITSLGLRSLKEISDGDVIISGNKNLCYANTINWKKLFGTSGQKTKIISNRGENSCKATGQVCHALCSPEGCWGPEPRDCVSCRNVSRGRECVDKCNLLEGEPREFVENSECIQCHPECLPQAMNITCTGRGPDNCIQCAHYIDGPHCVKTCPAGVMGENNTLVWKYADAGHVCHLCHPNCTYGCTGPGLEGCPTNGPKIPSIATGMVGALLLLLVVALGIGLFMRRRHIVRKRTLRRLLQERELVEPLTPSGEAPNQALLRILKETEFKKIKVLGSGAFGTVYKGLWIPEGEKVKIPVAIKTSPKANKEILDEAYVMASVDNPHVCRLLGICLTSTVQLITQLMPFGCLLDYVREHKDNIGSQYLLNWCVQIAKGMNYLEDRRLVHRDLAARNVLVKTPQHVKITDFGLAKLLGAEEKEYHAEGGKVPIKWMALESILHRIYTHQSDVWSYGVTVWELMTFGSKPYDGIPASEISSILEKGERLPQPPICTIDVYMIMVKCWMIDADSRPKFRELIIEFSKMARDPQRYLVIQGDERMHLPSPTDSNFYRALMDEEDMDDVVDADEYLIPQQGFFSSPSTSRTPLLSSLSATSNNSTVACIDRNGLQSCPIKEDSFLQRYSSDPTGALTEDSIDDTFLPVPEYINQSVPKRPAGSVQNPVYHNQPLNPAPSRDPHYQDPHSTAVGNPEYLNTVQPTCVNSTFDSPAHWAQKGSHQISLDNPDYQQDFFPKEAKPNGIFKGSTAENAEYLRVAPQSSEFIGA
Sequence of Ba/F3-EGFR-N771_P772insH cells (P00533 with tags, fused parts or gaps INS771H): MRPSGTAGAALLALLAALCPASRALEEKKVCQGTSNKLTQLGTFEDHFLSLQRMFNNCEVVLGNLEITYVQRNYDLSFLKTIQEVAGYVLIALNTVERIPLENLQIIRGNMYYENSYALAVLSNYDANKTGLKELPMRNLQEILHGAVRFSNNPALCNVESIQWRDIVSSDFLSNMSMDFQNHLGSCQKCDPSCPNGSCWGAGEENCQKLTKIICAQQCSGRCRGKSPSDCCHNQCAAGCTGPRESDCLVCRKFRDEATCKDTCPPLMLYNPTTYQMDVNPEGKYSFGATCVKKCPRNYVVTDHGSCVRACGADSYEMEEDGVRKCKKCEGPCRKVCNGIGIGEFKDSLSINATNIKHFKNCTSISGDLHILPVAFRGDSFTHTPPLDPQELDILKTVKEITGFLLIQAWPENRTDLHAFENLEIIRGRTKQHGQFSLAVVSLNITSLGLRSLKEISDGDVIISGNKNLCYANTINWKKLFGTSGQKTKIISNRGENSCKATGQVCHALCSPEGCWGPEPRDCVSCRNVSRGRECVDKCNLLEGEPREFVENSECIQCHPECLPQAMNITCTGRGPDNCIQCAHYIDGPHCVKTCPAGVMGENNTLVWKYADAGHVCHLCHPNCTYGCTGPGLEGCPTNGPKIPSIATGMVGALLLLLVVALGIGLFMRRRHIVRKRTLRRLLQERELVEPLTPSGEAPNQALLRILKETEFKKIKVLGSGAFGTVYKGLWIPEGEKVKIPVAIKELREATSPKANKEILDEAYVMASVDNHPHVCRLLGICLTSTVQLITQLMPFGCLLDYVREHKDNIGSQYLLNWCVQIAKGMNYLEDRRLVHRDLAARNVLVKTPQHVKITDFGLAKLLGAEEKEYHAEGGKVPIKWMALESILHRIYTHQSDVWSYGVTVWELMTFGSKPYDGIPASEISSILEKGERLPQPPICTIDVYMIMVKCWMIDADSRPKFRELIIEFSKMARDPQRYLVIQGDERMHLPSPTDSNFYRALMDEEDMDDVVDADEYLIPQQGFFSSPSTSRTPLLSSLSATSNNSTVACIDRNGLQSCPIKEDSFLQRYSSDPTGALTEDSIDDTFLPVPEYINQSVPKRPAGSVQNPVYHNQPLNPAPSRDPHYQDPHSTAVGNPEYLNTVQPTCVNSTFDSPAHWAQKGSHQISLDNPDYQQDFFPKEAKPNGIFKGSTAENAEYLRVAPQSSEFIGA
Sequence of Ba/F3-EGFR-D770_N771insSVD C797S cells (P00533 with tags, fused parts or gaps DUP768-770/C797S): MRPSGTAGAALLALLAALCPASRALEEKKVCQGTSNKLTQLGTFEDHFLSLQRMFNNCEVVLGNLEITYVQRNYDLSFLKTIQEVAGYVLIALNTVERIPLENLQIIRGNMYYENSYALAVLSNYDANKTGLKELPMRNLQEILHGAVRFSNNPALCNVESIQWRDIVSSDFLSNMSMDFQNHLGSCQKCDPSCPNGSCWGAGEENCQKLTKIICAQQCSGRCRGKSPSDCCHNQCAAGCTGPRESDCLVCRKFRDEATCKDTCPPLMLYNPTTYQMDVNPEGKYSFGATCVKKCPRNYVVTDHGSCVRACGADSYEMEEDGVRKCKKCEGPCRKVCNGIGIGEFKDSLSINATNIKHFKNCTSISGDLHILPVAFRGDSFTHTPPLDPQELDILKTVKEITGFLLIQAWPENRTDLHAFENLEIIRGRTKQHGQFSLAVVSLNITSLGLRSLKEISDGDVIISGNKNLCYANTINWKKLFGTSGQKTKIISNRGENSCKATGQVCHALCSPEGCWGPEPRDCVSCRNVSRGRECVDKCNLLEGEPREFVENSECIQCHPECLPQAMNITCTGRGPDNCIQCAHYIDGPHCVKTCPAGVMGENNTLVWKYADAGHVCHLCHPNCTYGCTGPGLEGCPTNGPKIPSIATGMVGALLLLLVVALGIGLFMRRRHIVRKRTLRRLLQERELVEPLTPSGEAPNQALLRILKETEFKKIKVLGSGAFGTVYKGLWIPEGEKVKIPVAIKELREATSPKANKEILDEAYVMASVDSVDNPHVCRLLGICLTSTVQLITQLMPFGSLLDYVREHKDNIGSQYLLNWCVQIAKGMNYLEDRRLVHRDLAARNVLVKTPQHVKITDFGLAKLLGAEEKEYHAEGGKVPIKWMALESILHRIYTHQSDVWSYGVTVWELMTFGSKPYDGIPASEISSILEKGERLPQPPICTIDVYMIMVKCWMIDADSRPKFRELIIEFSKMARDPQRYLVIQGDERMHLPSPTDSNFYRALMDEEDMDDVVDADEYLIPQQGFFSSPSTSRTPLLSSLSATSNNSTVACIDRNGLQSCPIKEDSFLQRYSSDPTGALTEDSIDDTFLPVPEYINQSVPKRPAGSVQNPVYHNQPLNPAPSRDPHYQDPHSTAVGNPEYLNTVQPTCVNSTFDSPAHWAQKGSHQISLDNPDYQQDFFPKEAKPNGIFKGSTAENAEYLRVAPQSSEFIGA
T1 sequence (P00533 other isoform, or with tags, fused parts or gaps DUP768-770): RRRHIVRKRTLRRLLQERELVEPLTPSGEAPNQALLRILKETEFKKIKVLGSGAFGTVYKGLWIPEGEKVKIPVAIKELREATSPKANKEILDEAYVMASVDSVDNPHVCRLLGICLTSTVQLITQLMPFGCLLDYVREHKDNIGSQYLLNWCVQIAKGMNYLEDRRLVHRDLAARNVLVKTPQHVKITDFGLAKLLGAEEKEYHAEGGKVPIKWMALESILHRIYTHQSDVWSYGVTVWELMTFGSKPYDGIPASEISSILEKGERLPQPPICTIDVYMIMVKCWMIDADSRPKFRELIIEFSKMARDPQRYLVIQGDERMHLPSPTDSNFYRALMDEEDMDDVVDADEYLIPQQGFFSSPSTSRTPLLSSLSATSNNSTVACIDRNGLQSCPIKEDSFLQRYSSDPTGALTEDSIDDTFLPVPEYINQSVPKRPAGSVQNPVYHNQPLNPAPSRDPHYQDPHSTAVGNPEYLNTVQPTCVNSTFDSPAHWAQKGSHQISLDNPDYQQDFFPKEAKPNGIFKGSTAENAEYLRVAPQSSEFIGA
T2 sequence (O43683 704-1085): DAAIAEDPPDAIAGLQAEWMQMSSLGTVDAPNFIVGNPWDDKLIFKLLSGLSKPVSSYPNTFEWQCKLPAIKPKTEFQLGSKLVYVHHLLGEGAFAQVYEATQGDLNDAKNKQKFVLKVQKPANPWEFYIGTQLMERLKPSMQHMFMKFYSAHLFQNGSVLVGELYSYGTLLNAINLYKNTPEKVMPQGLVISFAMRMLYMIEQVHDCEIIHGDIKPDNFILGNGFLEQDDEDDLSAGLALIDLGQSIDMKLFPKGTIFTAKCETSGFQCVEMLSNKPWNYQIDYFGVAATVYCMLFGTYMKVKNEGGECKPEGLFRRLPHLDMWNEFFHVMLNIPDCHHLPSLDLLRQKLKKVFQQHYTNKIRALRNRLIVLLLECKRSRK

Structure (SMILES): COCC(C)Oc1cnccc1-c1[nH]c2c(c1Nc1cccc(Cl)c1OC)C(=O)N[C@@H]1CCC[C@H]21 (single isomer, unassigned) [Example 51]
- mutEGFR (D770_N771insSVD) kinase assay IC50 [1]: 0.305 nM
- IC50 [2]: 7090 nM
- GI50 [3]: 13.6 nM
- GI50 [4]: 412 nM
- GI50 [5]: 6.89 nM
- GI50 [6]: 30.8 nM
- GI50 [7]: 1.05 nM
- GI50 [8]: 19.5 nM
- GI50 [9]: 0.564 nM
- GI50 [10]: 15.2 nM
- IC50 [11]: < 3 nM

Structure (SMILES): COc1c(Cl)cccc1Nc1c(-c2ccncc2OC[C@@H]2CCCO2)[nH]c2c1C(=O)NC1(CC1)C2 [Example 113, 3′-(3-chloro-2-methoxyanilino)-2′-(3-{[(2S)-oxolan-2-yl]methoxy}pyridin-4-yl)-1′,7′-dihydrospiro[cyclopropane-1,6′-pyrrolo[3,2-c]pyridin]-4′(5′H)-one]
- mutEGFR (D770_N771insSVD) kinase assay IC50 [1]: 0.201 nM
- IC50 [2]: 761 nM
- GI50 [3]: 23.7 nM
- GI50 [4]: 849 nM
- GI50 [5]: 14.3 nM
- GI50 [6]: 116 nM
- GI50 [7]: 0.989 nM
- GI50 [8]: 71.4 nM
- GI50 [9]: 1.1 nM
- GI50 [10]: 22.2 nM
- IC50 [11]: < 3 nM

Structure (SMILES): COc1c(Cl)cccc1Nc1c(-c2ccncc2OCC2COCCO2)[nH]c2c1C(=O)NCC2C (single isomer, unassigned) [Example 34, 3-(3-chloro-2-methoxy-anilino)-2-[3-(1,4-dioxan-2-ylmethoxy)-4-pyridyl]-7-methyl-1,5,6,7-tetrahydropyrrolo[3,2-c]pyridin-4-one]
- mutEGFR (D770_N771insSVD) kinase assay IC50 [1]: 0.175 nM
- IC50 [2]: > 20000 nM
- GI50 [3]: 20.2 nM
- GI50 [4]: 424 nM
- GI50 [5]: 14.3 nM
- GI50 [6]: 165 nM
- GI50 [7]: 1.19 nM
- GI50 [8]: 35.5 nM
- GI50 [9]: 0.795 nM
- GI50 [10]: 33.1 nM
- IC50 [11]: < 3 nM

Structure (SMILES): Cc1c(Cl)cccc1Nc1c(-c2ccncc2OCC2COCCO2)[nH]c2c1C(=O)NCC2C (single isomer, unassigned) [Example 67, 3-(3-chloro-2-methyl-anilino)-2-[3-(1,4-dioxan-2-ylmethoxy)-4-pyridyl]-7-methyl-1,5,6,7-tetrahydropyrrolo[3,2-c]pyridin-4-one]
- mutEGFR (D770_N771insSVD) kinase assay IC50 [1]: 0.252 nM
- IC50 [2]: 10100 nM
- GI50 [3]: 27.1 nM
- GI50 [4]: 1150 nM
- GI50 [5]: 18.3 nM
- GI50 [6]: 117 nM
- GI50 [7]: 1.41 nM
- GI50 [8]: 40.6 nM
- GI50 [9]: 0.581 nM
- GI50 [10]: 29.2 nM
- IC50 [11]: < 3 nM

Structure (SMILES): COc1c(Cl)cccc1Nc1c(-c2ccncc2OCCC(C)OC)[nH]c2c1C(=O)N[C@H](C)C2 (single isomer, unassigned) [Example 121]
- mutEGFR (D770_N771insSVD) kinase assay IC50 [1]: 0.188 nM
- IC50 [2]: 1830 nM
- GI50 [3]: 8.81 nM
- GI50 [4]: 267 nM
- GI50 [5]: 4.49 nM
- GI50 [6]: 49.2 nM
- GI50 [7]: 0.887 nM
- GI50 [8]: 21.7 nM
- GI50 [9]: 0.384 nM
- GI50 [10]: 12.8 nM
- IC50 [11]: < 3 nM

Structure (SMILES): COc1c(Cl)cccc1Nc1c(-c2ccncc2OCCC2CCCCO2)[nH]c2c1C(=O)N[C@H](C)C2 (single isomer, unassigned) [Example 87]
- mutEGFR (D770_N771insSVD) kinase assay IC50 [1]: 0.535 nM
- IC50 [2]: 19100 nM and > 20000 nM
- GI50 [3]: 15 nM
- GI50 [4]: 421 nM
- GI50 [5]: 21.6 nM
- GI50 [6]: 138 nM
- GI50 [7]: 5 nM
- GI50 [8]: 22.1 nM
- GI50 [9]: 0.804 nM
- GI50 [10]: 16.2 nM
- IC50 [11]: < 3 nM
